One data set relates to DENV2 NGC strain. The experiment in a line: Cell-based antiviral assay (Viral ToxGlo, CPE) against DENV-NGC. Details: species or system dengue virus (DENV2). Particulars: for IC50: mean ± SD of two individual experiments; for SI (selectivity index): ratio of CC50 to IC50. As to the method:
(§1) In this study, the DENV2 NGC strain (provided by Robert B. Tesh, University of Texas Medical Branch) and BHK-21 cells (Baby hamster kidney cells, ATCC CCL10) were used for cell-based antiviral evaluations. Viral stocks were prepared by infecting C6/36 cells (Aedes albopictus clone C6/36; ATCC CRL166), cultured in RPMI 1640 medium (Invitrogen, Burlington, ON, Canada) containing 2% foetal bovine serum (FBS) (Sigma-Aldrich, Shanghai, China) and 0.5% penicillin-streptomycin. The infected cultures were incubated at 28 °C with 5% CO2 for seven days until cytopathic effects (CPE) were detected. Supernatants were collected by centrifuging at 2,000 g for 5 min to remove debris, mixed with 20% FBS, and stored in aliquots at −80 °C. Viral titres were quantified using the Promega Viral ToxGlo assay (Fisher Scientific, Ottawa, ON, Canada) on BHK-21 cells, and the 50% tissue culture infective dose (TCID50) was determined following the manufacturer’s instructions. To test antiviral activity, BHK-21 cells were seeded in 96-well plates at 2,500 cells per well using Dulbecco’s modified Eagle’s medium (DMEM) with 10% FBS and 1% penicillin-streptomycin. After overnight incubation at 37 °C, cells were exposed to 100 TCID50 of DENV for 90 min. Following infection, the medium was replaced with DMEM supplemented with 2.5% FBS and different concentrations of the test compounds. Cultures were maintained at 37 °C with 5% CO2 for 3 days. Fresh Viral Tox reagent was prepared, and 100 μL was added to each well before incubating the plates for at least 10 min. Luminescence readings were taken using a 1450 MicroBeta TriLux scintillation counter (PerkinElmer). Data were analysed by plotting luminescence values against logarithmic compound concentrations, and nonlinear regression was carried out using GraphPad Prism 10.0 software.

A short description of data set [1]: Cytotoxicity (CC50) in the cell-based assay. The conditions noted are these: hamster, BHK-21 cells. On the procedure: as §1
[2] abbreviates: Dengue virus, DENV2, BHK-21, 72 h, BHK-21 cells, 100 TCID50 of DENV, 3 days, read-out: DENV-NGC-IC50.
Setting [3] is: BHK-21 cells, 100 TCID50 of DENV, 3 days, read-out: DENV-NGC-IC50.
[4] abbreviates: Dengue virus, DENV2, BHK-21, 72 h, read-out: DENV-NGC-IC50, BHK-21 cells, 100 TCID50 of DENV, 3 days.

Where “and” joins values, the source holds several entries; their conditions need not be identical. Identical values can stand only once. Like-named read-outs stand apart in the source and are kept apart here.

In the case of `Nc1ncnc2c([C@@H]3N[C@H](CO)[C@@H](O)[C@H]3O)c[nH]c12` [BCX4430, Galidesivir, reference compound], the half-maximal inhibitory concentration (IC50) in the data set with DENV2 NGC strain (setting [2]) is 41.6 ± 2.95 µM. Further, the “SI (selectivity index)” value in the data set with DENV2 NGC strain came to 2.40. In data set [1], this compound registered a CC50 at 3 days of 100 ± 12.5 µM.
For `COc1cccc(S(=O)(=O)NC(=O)c2cc(-c3ccc(C#CCO)s3)c(OC)cc2OC)c1` [Compound 27, reference compound] the same measures were 19.7 ± 1.12 µM, 1.37 and 26.9 ± 3.02 µM.
For `CN(Cc1ccccc1)C(=O)c1snc2c(=O)n(Cc3ccccc3)c(=O)[nH]c12` [Compound D1], the half-maximal inhibitory concentration (IC50) with DENV2 NGC strain (setting [2]) stood at 13.1 ± 1.17 µM. Besides, the “SI (selectivity index)” value in the data set with DENV2 NGC strain was determined as 2.87. Moreover, in data set [1], the cytotoxic concentration (CC50) at 3 days was 37.5 ± 2.03 µM.
For the compound `CCCC[C@@](CCC(=O)O)(C(=O)OCC)c1csc(Nc2ccc(C)cc2)n1` [Compound D3], in the data set on DENV2 NGC strain (setting [2]), the half-maximal inhibitory concentration (IC50) is greater than 66.7 µM.
As to `O=C(CCSc1nc(-c2ccc3c(c2)OCO3)cc(C(F)(F)F)n1)NCCN1CCOCC1` [Compound D4], the IC50 in the data set with DENV2 NGC strain (setting [2]) is greater than 200 µM.
For the compound `O=C(Cn1c(=O)sc2ccccc21)Nc1nnc(SCc2ccccc2)s1` [Compound D5], the 50% inhibitory concentration (IC50) in the data set with DENV2 NGC strain (setting [3]) was 28.5 µM and > 66.7 µM. This compound showed a CC50 at 3 days in data set [1] greater than 200 µM.
In the case of `NC(=O)C1CCN(C(=O)CCCSc2nc(-c3ccco3)cc(C(F)(F)F)n2)CC1` [Compound D6], in the data set with DENV2 NGC strain (setting [2]), the IC50 is greater than 200 µM.
On the same count and under the same terms, to `O=C(Cn1c(=O)sc2ccccc21)Nc1nnc(SCC(=O)N2CCOCC2)s1` [Compound D7] belongs greater than 200 µM.
`O=C(Nc1ccc(F)cc1F)N1CCC[C@@H]1c1nc2cc(-c3ccccc3F)ccc2o1` [Compound D8]: the concentration for half-maximal inhibition (IC50) in the data set with DENV2 NGC strain (setting [2]) came to 14.8 ± 7.76 µM. Besides, the “SI (selectivity index)” value in the data set on DENV2 NGC strain was 6.71. Further, half-maximal cytotoxicity in data set [1] (CC50 at 3 days) was put at 99.2 ± 1.93 µM.
Consider `CC(=O)Nc1ccc(S(=O)(=O)N[C@]2(C(F)(F)F)NC(=O)N(c3ccc(Cl)cc3)C2=O)cc1` [Compound D9], for which the IC50 with DENV2 NGC strain (setting [2]) was greater than 200 µM.
In the case of `Cc1ccc(NC(=O)[C@@H]2[C@H]3C(=O)N(C[C@@H]4CCCO4)[C@H](C(=O)NC4CCCCC4)[C@]34C=C[C@H]2O4)cc1` [Compound D10], in the data set with DENV2 NGC strain (setting [2]), the IC50 is greater than 200 µM.
Consider `Cc1[nH]c2ccccc2c1C(=O)C(=O)NC[C@@H]1COc2ccccc2O1` [Compound D11], for which the IC50 in the data set on DENV2 NGC strain (setting [4]) was greater than 66.7 µM. Besides, half-maximal cytotoxicity in data set [1] (CC50 at 3 days) was put at 87.3 ± 2.75 µM.
Turning to `O=C1C[C@@H](NCCc2c[nH]c3ccccc23)C(=O)N1c1ccc(Oc2ccccc2)cc1` [Compound D12], the IC50 with DENV2 NGC strain (setting [2]) worked out at 47.3 ± 11.8 µM. Also, the “SI (selectivity index)” value in the data set with DENV2 NGC strain is listed as 3.45. The same compound returned a CC50 at 3 days in data set [1] of 163 ± 14.1 µM.
On to `NC(=O)COc1ccc([C@@H]2CC(=O)Nc3nc(SCc4ccc(Cl)cc4)[nH]c(=O)c32)cc1` [Compound D14], for which the half-maximal inhibitory concentration (IC50) in the data set with DENV2 NGC strain (setting [3]) is 31.2 µM and > 200 µM. Moreover, in data set [1], the cytotoxic concentration (CC50) at 3 days is greater than 200 µM.
`CCOc1c(Nc2ccc(C#N)cc2)c(=O)c1=O` [Compound D15]: in the data set with DENV2 NGC strain (setting [2]), the IC50 is greater than 200 µM.
Same read-out and setting: the result for `O=C(COc1ccccc1)Nc1nnc(SCc2cc(=O)n3cc(Cl)ccc3n2)s1` [Compound D16] reads greater than 200 µM.
For the compound `C[C@@H](Sc1nnc2c3ccccc3nc(-c3ccccc3)n12)C(=O)NC[C@H]1CCCO1` [Compound D17], the IC50 in the data set on DENV2 NGC strain (setting [2]) worked out at 22.2 ± 7.25 µM. The “SI (selectivity index)” value in the data set with DENV2 NGC strain came out at 2.38. Moreover, in data set [1], the midpoint of cytotoxicity, the CC50 at 3 days, lay at 53 ± 10.5 µM.
Regarding `O=C(O)CCCNC(=O)Cn1nc2c(cc1=O)CCCCC2` [Compound D18], the half-maximal inhibitory concentration (IC50) with DENV2 NGC strain (setting [2]) is greater than 200 µM.
Same read-out and setting: the result for `O=c1c2ccccc2[nH]c(=S)n1C[C@H]1CC[C@H](C(=O)NC[C@@H]2COc3ccccc3O2)CC1` [Compound D19] reads greater than 200 µM; that for `CN(c1ccccc1)c1nc(=O)n(CC(=O)Nc2ccc(Br)cc2)c2ccccc12` [Compound D21], greater than 200 µM.
As to `N#Cc1ccc(C(=O)N2CCC[C@H]2c2nc(CCOCC3CC3)no2)cc1` [Compound D23], the IC50 was greater than 200 µM in the data set on DENV2 NGC strain (setting [3]) and 123 µM in the data set on DENV2 NGC strain (setting [2]). Further, the CC50 at 3 days in data set [1] is greater than 200 µM.
As to `O=C([C@@H]1C[C@H](Oc2ccccc2)CN1C(=O)CCc1nc2ccccc2s1)N1CCCC1` [Compound D24], in the data set with DENV2 NGC strain (setting [4]), the IC50 is greater than 66.7 µM. For the same compound, the CC50 at 3 days in data set [1] is greater than 200 µM.
As for `O=C(O)[C@H](NC(=O)[C@@H]1CC=CC[C@H]1C(=O)c1ccccc1)c1ccccc1` [Compound D26], in the data set on DENV2 NGC strain (setting [2]), the half-maximal inhibitory concentration (IC50) was greater than 200 µM.

The values above are taken from publication PMC11823381, “Identification of novel inhibitors of dengue viral NS5 RNA-dependent RNA polymerase through molecular docking, biological activity evaluation and molecular dynamics simulations” (Journal of Enzyme Inhibition and Medicinal Chemistry, 2025).
